Blank lines part the entries; values can stand above or below the compound they belong to.
Tested on: 922993-354-T-J3-PDC complex spheroids, viability
Experiment: Anticancer human tumor 922993-354-T-J3-PDC patient-derived endometrial carcinoma cell line growth inhibition [GQUAD]
Details: for IC50: curve of first compound; for viability, T/C: stronger effect = lower value
In short: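 Tumor cells were grown as complex spheroids with HUVEC endothelial cells and mesenchymal stem cells as stroma. G-quadruplex stabilizers were combined with targeted agents over half-log dilutions from near the clinical Cmax, or from 10 microM.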

[1] = second compound 0.0316 µM, first compound 0.0316 µM
[2] = second compound 0.0316 µM, first compound 0.316 µM
[3] = second compound 0.1 µM, first compound 0.0316 µM
[4] = second compound 0.1 µM, first compound 0.316 µM
[5] = second compound 0.316 µM, first compound 0.0316 µM
[6] = second compound 0.316 µM, first compound 0.316 µM
[7] = second compound 1 µM, first compound 0.0316 µM
[8] = second compound 1 µM, first compound 0.316 µM
[9] = second compound 3.16 µM, first compound 0.0316 µM
[10] = second compound 3.16 µM, first compound 0.316 µM
[11] = second compound 10 µM, first compound 0.0316 µM
[12] = second compound 10 µM, first compound 0.316 µM
[13] = second compound 0.0316 µM, first compound 0.1 µM
[14] = second compound 0.0316 µM, first compound 1 µM
[15] = second compound 0.0316 µM, first compound 3.16 µM
[16] = second compound 0.0316 µM, first compound 10 µM
[17] = second compound 0.1 µM, first compound 0.1 µM
[18] = second compound 0.1 µM, first compound 1 µM
[19] = second compound 0.1 µM, first compound 3.16 µM
[20] = second compound 0.1 µM, first compound 10 µM
[21] = second compound 0.316 µM, first compound 0.1 µM
[22] = second compound 0.316 µM, first compound 1 µM
[23] = second compound 0.316 µM, first compound 3.16 µM
[24] = second compound 0.316 µM, first compound 10 µM
[25] = second compound 1 µM, first compound 0.1 µM
[26] = second compound 1 µM, first compound 1 µM
[27] = second compound 1 µM, first compound 3.16 µM
[28] = second compound 1 µM, first compound 10 µM
[29] = second compound 3.16 µM, first compound 0.1 µM
[30] = second compound 3.16 µM, first compound 1 µM
[31] = second compound 3.16 µM, first compound 3.16 µM
[32] = second compound 3.16 µM, first compound 10 µM
[33] = second compound 10 µM, first compound 0.1 µM
[34] = second compound 10 µM, first compound 1 µM
[35] = second compound 10 µM, first compound 3.16 µM
[36] = second compound 10 µM, first compound 10 µM
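Also: spheroids exposed to compounds for seven days.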
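For viability, T/C in this document: 100% = DMSO vehicle control viability.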

IC50 (second compound 0.0316 µM): > 0.316 µM
IC50 (second compound 0.1 µM): 0.109 µM
IC50 (second compound 0.316 µM): < 0.000999 µM
IC50 (second compound 1 µM): < 0.000999 µM
IC50 (second compound 3.16 µM): < 0.000999 µM
IC50 (second compound 10 µM): < 0.000999 µM
Compound: Cc1[nH]c2ccccc2c1CCNCc1ccc(/C=C/C(=O)NO)cc1 + Cc1cnc(CNC(=O)c2c(=O)c3ccc(N4CCCN(C)CC4)nc3n3c2sc2ccccc23)cn1
viability, T/C (second compound 0.0316 µM, first compound 0.000999 µM): 81.9%
viability, T/C (second compound 0.0316 µM, first compound 0.00316 µM): 86.5%
viability, T/C (second compound 0.0316 µM, first compound 0.00999 µM): 108%
viability, T/C [1]: 72.6%
viability, T/C (second compound 0.0316 µM, first compound 0.0999 µM): 73.5%
viability, T/C [2]: 54.3%
viability, T/C (second compound 0.1 µM, first compound 0.000999 µM): 55.7%
viability, T/C (second compound 0.1 µM, first compound 0.00316 µM): 64.3%
viability, T/C (second compound 0.1 µM, first compound 0.00999 µM): 57.6%
viability, T/C [3]: 55.8%
viability, T/C (second compound 0.1 µM, first compound 0.0999 µM): 47%
viability, T/C [4]: 45.4%
viability, T/C (second compound 0.316 µM, first compound 0.000999 µM): 54.2%
viability, T/C (second compound 0.316 µM, first compound 0.00316 µM): 33.7%
viability, T/C (second compound 0.316 µM, first compound 0.00999 µM): 44.2%
viability, T/C [5]: 34.7%
viability, T/C (second compound 0.316 µM, first compound 0.0999 µM): 40.9%
viability, T/C [6]: 30.8%
viability, T/C (second compound 1 µM, first compound 0.000999 µM): 42.6%
viability, T/C (second compound 1 µM, first compound 0.00316 µM): 46.7%
viability, T/C (second compound 1 µM, first compound 0.00999 µM): 38.9%
viability, T/C [7]: 34.9%
viability, T/C (second compound 1 µM, first compound 0.0999 µM): 33.9%
viability, T/C [8]: 31.2%
viability, T/C (second compound 3.16 µM, first compound 0.000999 µM): 40.9%
viability, T/C (second compound 3.16 µM, first compound 0.00316 µM): 48.6%
viability, T/C (second compound 3.16 µM, first compound 0.00999 µM): 41.6%
viability, T/C [9]: 41.7%
viability, T/C (second compound 3.16 µM, first compound 0.0999 µM): 29.9%
viability, T/C [10]: 24.6%
viability, T/C (second compound 10 µM, first compound 0.000999 µM): 36%
viability, T/C (second compound 10 µM, first compound 0.00316 µM): 40.3%
viability, T/C (second compound 10 µM, first compound 0.00999 µM): 44.8%
viability, T/C [11]: 30%
viability, T/C (second compound 10 µM, first compound 0.0999 µM): 38.9%
viability, T/C [12]: 6.92%

Compound: CC(=O)O[C@H]1C(=O)[C@@]2(C)[C@H]([C@H](OC(=O)c3ccccc3)[C@]3(O)C[C@H](OC(=O)[C@H](O)[C@@H](NC(=O)c4ccccc4)c4ccccc4)C(C)=C1C3(C)C)[C@]1(OC(C)=O)CO[C@@H]1C[C@@H]2O + CN(C)c1ccc(Nc2c3ccc(NC(=O)CCN4CCCC4)cc3nc3cc(NC(=O)CCN4CCCC4)ccc23)cc1
IC50 (second compound 0.0316 µM): 7.96 µM
IC50 (second compound 0.1 µM): 8.65 µM
IC50 (second compound 0.316 µM): > 10 µM
IC50 (second compound 1 µM): > 10 µM
IC50 (second compound 3.16 µM): > 10 µM
IC50 (second compound 10 µM): > 10 µM
viability, T/C [1]: 86.5%
viability, T/C [13]: 79%
viability, T/C [2]: 104%
viability, T/C [14]: 104%
viability, T/C [15]: 65.3%
viability, T/C [16]: 46.2%
viability, T/C [3]: 83.4%
viability, T/C [17]: 90.2%
viability, T/C [4]: 113%
viability, T/C [18]: 101%
viability, T/C [19]: 67.3%
viability, T/C [20]: 47.5%
viability, T/C [5]: 73.5%
viability, T/C [21]: 82.3%
viability, T/C [6]: 116%
viability, T/C [22]: 85.6%
viability, T/C [23]: 72%
viability, T/C [24]: 57.5%
viability, T/C [7]: 81.1%
viability, T/C [25]: 99.5%
viability, T/C [8]: 96.4%
viability, T/C [26]: 69.5%
viability, T/C [27]: 80%
viability, T/C [28]: 51.8%
viability, T/C [9]: 93.7%
viability, T/C [29]: 116%
viability, T/C [10]: 103%
viability, T/C [30]: 92.5%
viability, T/C [31]: 82.6%
viability, T/C [32]: 53.5%
viability, T/C [11]: 99.7%
viability, T/C [33]: 122%
viability, T/C [12]: 125%
viability, T/C [34]: 130%
viability, T/C [35]: 77.6%
viability, T/C [36]: 67.1%

Compound: C=CCn1c(=O)c2cnc(Nc3ccc(N4CCN(C)CC4)cc3)nc2n1-c1cccc(C(C)(C)O)n1 + CN(C)c1ccc(Nc2c3ccc(NC(=O)CCN4CCCC4)cc3nc3cc(NC(=O)CCN4CCCC4)ccc23)cc1
IC50 (second compound 0.0316 µM): 4.2 µM
IC50 (second compound 0.1 µM): 4.2 µM
IC50 (second compound 0.316 µM): 4.34 µM
IC50 (second compound 1 µM): 5.26 µM
IC50 (second compound 3.16 µM): 5.16 µM
IC50 (second compound 10 µM): 6.53 µM
viability, T/C [1]: 103%
viability, T/C [13]: 80.9%
viability, T/C [2]: 87.4%
viability, T/C [14]: 74.5%
viability, T/C [15]: 67.7%
viability, T/C [16]: 12.4%
viability, T/C [3]: 95.3%
viability, T/C [17]: 87.1%
viability, T/C [4]: 88%
viability, T/C [18]: 88.6%
viability, T/C [19]: 61.8%
viability, T/C [20]: 13.9%
viability, T/C [5]: 93.6%
viability, T/C [21]: 101%
viability, T/C [6]: 73.2%
viability, T/C [22]: 81.8%
viability, T/C [23]: 65.6%
viability, T/C [24]: 16.9%
viability, T/C [7]: 110%
viability, T/C [25]: 121%
viability, T/C [8]: 95.3%
viability, T/C [26]: 96.5%
viability, T/C [27]: 79.1%
viability, T/C [28]: 17%
viability, T/C [9]: 100%
viability, T/C [29]: 85.5%
viability, T/C [10]: 113%
viability, T/C [30]: 104%
viability, T/C [31]: 74.6%
viability, T/C [32]: 16.6%
viability, T/C [11]: 111%
viability, T/C [33]: 109%
viability, T/C [12]: 108%
viability, T/C [34]: 110%
viability, T/C [35]: 87.2%
viability, T/C [36]: 28.2%

— PubChem BioAssay AID2060489 (Molecular Pharmacology Branch, DTP, NCI, 2025)
